Assay results reported in paper PMC4729137, “Functional analysis of androgen receptor mutations that confer anti-androgen resistance identified in circulating cell-free DNA from prostate cancer patients” (Genome Biology, 2016).
Substitutions are numbered along the chain they refer to.

Experiments:
[1] = target: T1, T878A-AR (Homo sapiens, UniProt P10275, T878A); format: cell-based; parameters: Full-length human AR (WT-AR) was encoded on a pcDNA3.1 expression plasmid; expressed in transfected cells; host or cells: PC3 cells; settings: AR mutant T878A; transfected PC3 cells; 0.1 nM R1881; drug 0 to 50 μM
T1 sequence (P10275 1-920 T878A): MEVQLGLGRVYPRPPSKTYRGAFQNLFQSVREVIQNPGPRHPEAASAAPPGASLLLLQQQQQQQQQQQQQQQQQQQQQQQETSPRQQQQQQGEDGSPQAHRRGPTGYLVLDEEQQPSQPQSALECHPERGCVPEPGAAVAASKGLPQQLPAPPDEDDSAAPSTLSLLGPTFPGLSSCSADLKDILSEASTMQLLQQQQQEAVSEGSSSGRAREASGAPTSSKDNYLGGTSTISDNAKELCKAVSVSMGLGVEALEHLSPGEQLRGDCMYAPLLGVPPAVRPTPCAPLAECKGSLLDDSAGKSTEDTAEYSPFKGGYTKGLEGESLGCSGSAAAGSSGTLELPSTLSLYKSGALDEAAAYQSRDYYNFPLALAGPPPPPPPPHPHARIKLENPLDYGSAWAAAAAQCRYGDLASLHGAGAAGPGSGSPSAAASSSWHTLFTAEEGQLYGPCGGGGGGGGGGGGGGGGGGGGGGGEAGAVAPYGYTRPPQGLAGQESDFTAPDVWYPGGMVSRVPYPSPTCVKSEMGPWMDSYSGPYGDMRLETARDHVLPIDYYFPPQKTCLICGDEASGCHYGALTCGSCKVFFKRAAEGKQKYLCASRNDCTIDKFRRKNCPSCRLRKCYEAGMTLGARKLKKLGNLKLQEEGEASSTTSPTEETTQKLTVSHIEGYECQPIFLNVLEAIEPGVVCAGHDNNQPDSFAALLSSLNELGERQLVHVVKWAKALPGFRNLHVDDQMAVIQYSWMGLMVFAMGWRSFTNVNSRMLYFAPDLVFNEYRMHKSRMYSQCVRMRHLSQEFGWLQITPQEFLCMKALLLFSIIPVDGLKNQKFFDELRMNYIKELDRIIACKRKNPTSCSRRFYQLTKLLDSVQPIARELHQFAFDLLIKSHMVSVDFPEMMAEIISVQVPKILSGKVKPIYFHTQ
Source text: Full-length human AR (WT-AR) was encoded on a pcDNA3.1 expression plasmid (Life technologies). The LBD point mutations (single and multiple) were generated using the QuikChange II Site-Directed Mutagenesis Kit (Agilent Technologies) as per manufacturer’s instructions using WT-AR as the template. The mutagenic oligonucleotide primers were designed individually with the desired mutation in the middle of the primer with approximately 10 to 15 bases of correct sequence on both sides.
PC3 cells were seeded and transfected as described above. […] A non-stimulated/no R1881 control was used. After 24 h, cells were lysed and AR-dependent luciferase activity was quantified. Each concentration was assayed in quadruplicate n = 4, with a biological replicate of n = 3. Results were averaged and normalized by expressing them as a percentage of WT AR activity.

[2] = target: T2, L882I-AR (Homo sapiens, UniProt P10275, L882I); assay: cell-based
T2 sequence (P10275 1-920 L882I): T1 sequence (P10275 1-920 T878A) with A878T, L882I

| Agonist response to treatment [1] | Compound | EC50 [2] |
| --- | --- | --- |
| Partial | CC(C)(O)C(=O)Nc1ccc([N+](=O)[O-])c(C(F)(F)F)c1 [Hydroxyflutamide, hydroxyflutamide] |  |
|  | C[C@]12CCC(=O)C=C1CC[C@@H]1[C@@H]2[C@@H](O)C[C@@]2(C)[C@H]1CC[C@]2(O)C(=O)CO [hydrocortisone] | > 0.5 µM |
